Experimental data: BindingDB's records for patent US20250034134 (Wuhan Humanwell Innovative Drug Research and Development …, 2025)

Molecular target: T1, 15-hydroxyprostaglandin dehydrogenase [NAD(+)] (Homo sapiens, UniProt P15428)
T1 sequence (P15428 whole entry): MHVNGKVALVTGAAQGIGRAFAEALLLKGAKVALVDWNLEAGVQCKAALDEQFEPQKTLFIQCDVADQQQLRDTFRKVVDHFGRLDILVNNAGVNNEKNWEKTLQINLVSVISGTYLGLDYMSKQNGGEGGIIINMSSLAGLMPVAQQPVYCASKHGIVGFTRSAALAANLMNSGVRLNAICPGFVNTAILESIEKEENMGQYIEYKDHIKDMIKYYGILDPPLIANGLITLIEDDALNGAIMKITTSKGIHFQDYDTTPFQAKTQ
Experiment: Inhibition test of compounds on 15-PGDH enzyme
Protocol: 15-PGDH (R&D Systems, Cat. No.: 5660-DH-010) was prepared to twice the final concentration, i.e., 30 nM, using Assay Buffer (50 mM Tris-HCl, pH 7.5, 0.01vol % Tween 20). The obtained mixture was then added to a 384-well white plate (Cisbio Bioassays, Cat. No. 66PL384025) at 8 μL/well. Negative control wells (with Assay Buffer only and without enzyme) were set. The compound was then prepared to 4 times the final concentration using Assay Buffer, i.e., diluted 3-fold to 10 concentrations starting from 4000 nM. The obtained mixture was added to the above white plate at 4 μL/well, mixed well, centrifuged at 1000 rpm for 1 minute, and incubated at 25° C. for 10 minutes. Both positive control wells (with 15-PGDH only) and negative control wells (without 15-PGDH) were set. A mixture of NAD+(Select, Cat. No. S2518) and PGE2 (R&D Systems, Cat. No.: 2296/10) was then prepared using Assay Buffer. NAD+ and PGE2 were prepared to four times their final concentrations, i.e., 2 mM and 0.12 mM, respectively, using Assay Buffer. The obtained mixture was then added to the above white plate at 4 μL/well, mixed well, centrifuged at 1000 rpm for 1 minute, and incubated at 25° C. for 30 minutes for the reaction. The fluorescence was detected at an excitation wavelength of 340 nm and an emission wavelength of 485 nm using instrument TECAN SPARK 20M.

Compound | IC50 [nM]
CN1NC2C=C(N3CC4CC4C4C=C(C(=O)N5CC6CC6C5)C=NC43)C=CN2C1=O (configuration not stated) [US20250034134, Compound I-29] | 5.3
CN1C(=O)C2=NCC(N3CC4CC4C4C=C(C(=O)N5CCC(F)(F)CC5)C=NC43)C=C2C12CC2 (configuration not stated) [US20250034134, Compound I-19] | 3.72
Cn1ccc2c(c1=O)=CCC(N1C[C@H]3C[C@@H]3C3C=C(C(=O)N4CCC(F)(F)CC4)C=NC31)C=2 (some centres not stated) [US20250034134, Compound I-12B] | 7.42
Cn1nc2cc(N3CC4CC4C4C=C(C(=O)N5CCCC(C(F)(F)F)C5)C=NC43)ccn2c1=O (configuration not stated) [US20250034134, Compound I-26] | 9.9
CN1NC2C=C(N3CC4CC4C4C=C(C(=O)N5CCCC(C(F)F)C5)C=NC43)C=CN2C1=O (configuration not stated) [US20250034134, Compound I-23] | 4.26
N#Cc1ccc(N2CC3CC3C3C=C(C(=O)N4CCC(F)(F)CC4)C=NC32)cc1 (configuration not stated) [US20250034134, Compound I-11] | 3.8
CN1NC2C=C(N3CC4CC4C4C=C(C(=O)N5CCC6(CC5)CC6)C=NC43)C=CN2C1=O (configuration not stated) [US20250034134, Compound I-28] | 1.71
CN1NC2C=C(N3CC4CC4C4C=C(C(=O)N5CCC[C@@H](CF)C5)C=NC43)C=CN2C1=O (some centres not stated) [US20250034134, Compound I-30] | 6
[2H]C([2H])([2H])N1NC2C=C(N3CC4CC4C4C=C(C(=O)N5CCC(F)(F)CC5)C=NC43)C=CN2C1=O (configuration not stated) [US20250034134, Compound I-25] | 2.59
O=C(C1=CC2C3CC3CN(C3=CC4NN=CN4C=C3)C2N=C1)N1CCC(F)(F)CC1 (configuration not stated) [US20250034134, Compound I-17] | 4.5
CNC(=O)c1ccc(N2CC3CC3C3C=C(C(=O)N4CCC(F)(F)CC4)C=NC32)cc1F (configuration not stated) [US20250034134, Compound I-9] | 9.51
O=C(C1=CC2C3CC3CN(C3=CC4NC=NN4C=C3)C2N=C1)N1CCC(F)(F)CC1 (configuration not stated) [US20250034134, Compound I-16] | 5.4
CN1NC2C=C(N3C[C@H]4C[C@@H]4C4C=C(C(=O)N5CCC(F)(F)CC5)C=NC43)C=CN2C1=O (some centres not stated) [US20250034134, Compound I-3B] | 3.58
Cn1ccc2c(c1=O)=CCC(N1CC3CC3C3C=C(C(=O)N4CCC(F)(F)CC4)C=NC31)C=2 (configuration not stated) [US20250034134, Compound I-12] | 2.1
CN1CC2=CC(N3CC4CC4C4C=C(C(=O)N5CCC(F)(F)CC5)C=NC43)CN=C2C1=O (configuration not stated) [US20250034134, Compound I-2] | 5.15
[2H]C([2H])([2H])N1NC2C=C(N3C[C@H]4C[C@@H]4C4C=C(C(=O)N5CCC(F)(F)CC5)C=NC43)C=CN2C1=O (some centres not stated) [US20250034134, Compound I-25B] | 3.78
CN1NC2C=C(N3CC4CC4C4C=C(C(=O)N5CCCC(F)C5)C=NC43)C=CN2C1=O (configuration not stated) [US20250034134, Compound I-27] | 5.7
Cn1ccc2c(c1=O)=CCC(N1C[C@@H]3C[C@@H]3C3C=C(C(=O)N4CCC(F)(F)CC4)C=NC31)C=2 (some centres not stated) [US20250034134, Compound I-12A] | 1.52
Cn1nc2cc(N3CC4CC4C4C=C(C(=O)N5CCOCC5)C=NC43)ccn2c1=O (configuration not stated) [US20250034134, Compound I-22] | 10.2
CN1C=NC2C=C(N3CC4CC4C4C=C(C(=O)N5CCC(F)(F)CC5)C=CC43)C=NC2C1=O (configuration not stated) [US20250034134, Compound I-15] | 5.7
CN1NC2C=C(N3CC4CC4C4C=C(C(=O)N5CCC(F)(F)C5)C=NC43)C=CN2C1=O (configuration not stated) [US20250034134, Compound I-21] | 4.95
CN1NC2C=C(N3CC4CC4C4C=C(C(=O)N5CCCC(F)(F)C5)C=NC43)C=CN2C1=O (configuration not stated) [US20250034134, Compound I-24] | 4.23
